Source: patent publication US11365199B2, “Pyrazole compounds as modulators of FSHR and uses thereof” (Merck Patent GmbH, priority 2013, dated 2022)

target: T1, FSHR (Homo sapiens, UniProt P23945); test: EC50 of cyclic AMP production in CHO FSHR cells + EC20 FSH (Assay A); type: cell-based; conditions: not given
T1 construct: expressed in transfected cells; host or cells: CHO (Cho-FSHR-LUC-1-1-43)
T1 sequence (P23945 18-695): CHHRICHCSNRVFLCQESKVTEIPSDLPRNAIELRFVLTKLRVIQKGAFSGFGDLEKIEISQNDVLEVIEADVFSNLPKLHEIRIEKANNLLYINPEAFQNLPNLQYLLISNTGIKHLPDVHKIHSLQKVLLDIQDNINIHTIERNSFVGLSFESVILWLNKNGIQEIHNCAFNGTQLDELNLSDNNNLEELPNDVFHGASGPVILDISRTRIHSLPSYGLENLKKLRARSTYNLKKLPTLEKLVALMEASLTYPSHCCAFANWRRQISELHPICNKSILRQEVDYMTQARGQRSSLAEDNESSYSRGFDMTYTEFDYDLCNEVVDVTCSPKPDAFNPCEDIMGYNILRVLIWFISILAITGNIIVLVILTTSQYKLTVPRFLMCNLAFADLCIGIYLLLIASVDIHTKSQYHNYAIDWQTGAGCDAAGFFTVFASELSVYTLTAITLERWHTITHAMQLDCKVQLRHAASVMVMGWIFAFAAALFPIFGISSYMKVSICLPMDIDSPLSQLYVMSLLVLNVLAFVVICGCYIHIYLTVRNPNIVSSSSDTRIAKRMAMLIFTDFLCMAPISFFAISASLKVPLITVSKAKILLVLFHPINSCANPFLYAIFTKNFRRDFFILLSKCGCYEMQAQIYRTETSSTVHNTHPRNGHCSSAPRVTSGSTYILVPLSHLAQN
Protocol: EC50 of Cyclic AMP Production in CHO FSHR Cells+EC20 FSH (Assay A)
2500 Cho-FSHR-LUC-1-1-43 cells were plated per well in 5 μl of phenol red free DMEM/F12+1% FBS. Cells were plated in 384 well, solid white low volume plates (Greiner 784075) by Multidrop. Cells were assayed by adding 100 μl of 2×EC20 FSH/IBMX in DMEM/F12+0.1% BSA) by Multidrop to 2 μl of test compound stamped in 384 well plates (compounds are diluted 1:50). The final FSH concentration was […], and the final IBMX concentration was 200 μM. The compound plate map was as follows: Column 1: 2 μl of DMSO; Column 2: 2 μl of DMSO; Columns 3-12 and 13-24: 2 μl of test compound, diluted 1:4 in 100% DMSO, or 2 μl of FSH, diluted 1:4 in DMEM/F12+0.1% BSA. The starting concentration for FSH was 50 nM (final concentration was 0.5 nM). Furthermore, Column 23 contained 2 μl of EC100 FSH reference (100×) (diluted in DMEM/F12+0.1% BSA) at a final concentration of 0.5 nM, and Column 24 contained 2 μl of 1 mM AS707664/2 reference compound 2. 5 μl of compound+EC20 FSH mixture were transferred to cell plates (1:2 dilution into 5 μl of cell media) The plates were incubated at 37° C. for 1 h. 10 μl of mixed HTRF (CisBio #62AM4PEC) reagents were added per well and incubated at room temperature for 1 h. The plates were read on Envision using the cAMP HTRF—low volume 384 well protocol. The readout was the calculated fluorescence ratio (665 nm/620 nm). Values given in percent (%) indicate the percental effect (response) at a certain concentration of agonist relative to the maximum response of the FSH standard.

For [2H]C([2H])([2H])OCC(C)(C)N(C(=O)c1nn(-c2ccsc2)c2c1COc1cc(OC)c(C=C(C)C)cc1-2)C([2H])([2H])[2H] [Compound 58], the EC50 was < 100 nM.

same assay, conditions: CHO FSHR cells + EC20 FSH, cAMP HTRF; read-out: Assay A: EC50 of cyclic AMP production

First: COc1cc2c(cc1C=C(C)C)-c1c(c(C(=O)N3CCC[C@@H](C(=O)N4CCC4)CC3)nn1-c1ccsc1)CO2 [Compound 45, [(R)-4-(Azetidine-1-carbonyl)-azepan-1-yl]-[7-methoxy-8-(2-methyl-propenyl)-1-thiophen-3-yl-1,4-dihydro-chromeno[4,3-c]pyrazol-3-yl]-methanone]
Second: COc1cc2c(cc1C=C(C)C)-c1c(c(C(=O)N3CCC[C@H](C(=O)N4CCC4)CC3)nn1-c1ccsc1)CO2 [Compound 46, [(S)-4-(Azetidine-1-carbonyl)-azepan-1-yl]-[7-methoxy-8-(2-methyl-propenyl)-1-thiophen-3-yl-1,4-dihydro-chromeno[4,3-c]pyrazol-3-yl]-methanone]
The EC50 of the first is lower: 100 to 1000 nM for the first, 1000 to 5000 nM for the second.

First: COc1cc2c(cc1C=C(C)C)-c1c(c(C(=O)N3CCC(O)C3)nn1-c1ccsc1)CO2 (stereo not shown) [Compound 47, (3-Hydroxy-pyrrolidin-1-yl)-[7-methoxy-8-(2-methyl-propenyl)-1-thiophen-3-yl-1,4-dihydro-chromeno[4,3-c]pyrazol-3-yl]-methanone]
Second: [2H]C([2H])([2H])OC1CCN(C(=O)c2nn(-c3ccsc3)c3c2COc2cc(OC)c(C=C(C)C)cc2-3)C1 (stereo not shown) [Compound 49]
The EC50 of the first is higher: 1000 to 5000 nM for the first, 100 to 1000 nM for the second.

COc1cc2c(cc1C=C(C)C)-c1c(c(C(=O)N3CCCC3(C)CO)nn1-c1ccsc1)CO2 (stereo not shown) [Compound 48, (2-Hydroxymethyl-2-methyl-pyrrolidin-1-yl)-[7-methoxy-8-(2-methyl-propenyl)-1-thiophen-3-yl-1,4-dihydro-chromeno[4,3-c]pyrazol-3-yl]-methanone] and [2H]C([2H])([2H])OCC1(C)CCCN1C(=O)c1nn(-c2ccsc2)c2c1COc1cc(OC)c(C=C(C)C)cc1-2 (stereo not shown) [Compound 51] cannot be ordered by EC50: < 100 nM for the first, < 100 nM for the second.

COc1cc2c(cc1-c1sc(C)nc1C)-c1c(c(C(=O)N(C)C(C)(C)C)nn1-c1ccsc1)CO2 [Compound 53, 8-(2,4-Dimethyl-thiazol-5-yl)-7-methoxy-1-thiophen-3-yl-1,4-dihydro-chromeno[4,3-c]pyrazole-3-carboxylic acid tert-butyl-methyl-amide] and COc1cc2c(cc1-c1c(C)noc1C)-c1c(c(C(=O)N(C)C(C)(C)C)nn1-c1ccsc1)CO2 [Compound 67, 8-(3,5-Dimethyl-isoxazol-4-yl)-7-methoxy-1-thiophen-3-yl-1,4-dihydro-chromeno[4,3-c]pyrazole-3-carboxylic acid tert-butyl-methyl-amide] cannot be ordered by EC50: < 100 nM for the first, < 100 nM for the second.

First: COc1cc2c(cc1-c1ccc(F)s1)-c1c(c(C(=O)N(C)C(C)(C)C)nn1-c1ccsc1)CO2 [Compound 54, 8-(5-Fluoro-thiophen-2-yl)-7-methoxy-1-thiophen-3-yl-1,4-dihydro-chromeno[4,3-c]pyrazole-3-carboxylic acid tert-butyl-methyl-amide]
Second: COc1cc2c(cc1-c1cc[nH]n1)-c1c(c(C(=O)N(C)C(C)(C)C)nn1-c1ccsc1)CO2 [Compound 65, 7-Methoxy-8-(1H-pyrazol-3-yl)-1-thiophen-3-yl-1,4-dihydro-chromeno[4,3-c]pyrazole-3-carboxylic acid tert-butyl-methyl-amide]
The EC50 of the first is higher: 100 to 1000 nM for the first, < 100 nM for the second. The second is the more potent here.

COc1cc2c(cc1-c1ccn(C)c1)-c1c(c(C(=O)N(C)C(C)(C)C)nn1-c1ccsc1)CO2 [Compound 55, 7-Methoxy-8-(1-methyl-1H-pyrrol-3-yl)-1-thiophen-3-yl-1,4-dihydro-chromeno[4,3-c]pyrazole-3-carboxylic acid tert-butyl-methyl-amide] and COc1cc2c(cc1-c1cnn(C)c1)-c1c(c(C(=O)N(C)C(C)(C)C)nn1-c1ccsc1)CO2 [Compound 66, 7-Methoxy-8-(1-methyl-1H-pyrazol-4-yl)-1-thiophen-3-yl-1,4-dihydro-chromeno[4,3-c]pyrazole-3-carboxylic acid tert-butyl-methyl-amide] cannot be ordered by EC50: < 100 nM for the first, < 100 nM for the second.

First: [2H]C([2H])([2H])N(CCN1CCOC1=O)C(=O)c1nn(-c2ccsc2)c2c1COc1cc(OC)c(C=C(C)C)cc1-2 [Compound 56]
Second: [2H]C([2H])([2H])N(CCNC(=O)c1nn(-c2ccsc2)c2c1COc1cc(OC)c(C=C(C)C)cc1-2)C(C)=O [Compound 60]
The EC50 of the first is lower: < 100 nM for the first, 100 to 1000 nM for the second. The first is the more potent here.

Compared with COc1cc2c(cc1C=C(C)C)-c1c(c(C(=O)NCCCNC(=O)C3CCC3)nn1-c1ccsc1)CO2 [Compound 57, 7-methoxy-8-(2-methyl-propenyl)-1-thiophen-3-yl-1,4-dihydro-chromeno[4,3-c]pyrazole-3-carboxylic Acid [3-(cyclobutanecarbonyl-amino)-propyl]-amide], [2H]C([2H])([2H])N(CCCN(C(=O)C1CCC1)C([2H])([2H])[2H])C(=O)c1nn(-c2ccsc2)c2c1COc1cc(OC)c(C=C(C)C)cc1-2 [Compound 69] is lower in EC50: 1000 to 5000 nM for the first, 100 to 1000 nM for the second. The second is the more potent here.

Compared with [2H]C([2H])([2H])OCC(C)(C)NC(=O)c1nn(-c2ccsc2)c2c1COc1cc(OC)c(C=C(C)C)cc1-2 [Compound 59], [2H]C([2H])([2H])N(CCN(C(=O)c1nn(-c2ccsc2)c2c1COc1cc(OC)c(C=C(C)C)cc1-2)C([2H])([2H])[2H])C(C)=O [Compound 61] is lower in EC50: 100 to 1000 nM for the first, < 100 nM for the second.

First: COc1cc2c(cc1-c1cn[nH]c1)-c1c(c(C(=O)NCCN3CCOC3=O)nn1-c1ccsc1)CO2 [Compound 62, 7-Methoxy-8-(1H-pyrazol-4-yl)-1-thiophen-3-yl-1,4-dihydro-chromeno[4,3-c]pyrazole-3-carboxylic acid [2-(2-oxo-oxazolidin-3-yl)-ethyl]-amide]
Second: COc1cc2c(cc1-c1ccnn1C)-c1c(c(C(=O)N(C)C(C)(C)C)nn1-c1ccsc1)CO2 [Compound 64, 7-Methoxy-8-(2-methyl-2H-pyrazol-3-yl)-1-thiophen-3-yl-1,4-dihydro-chromeno[4,3-c]pyrazole-3-carboxylic acid tert-butyl-methyl-amide]
The EC50 of the first is higher: 100 to 1000 nM for the first, < 100 nM for the second.

COc1cc2c(cc1C1=CCN(C)CC1)-c1c(c(C(=O)N(C)C(C)(C)C)nn1-c1ccsc1)CO2 [Compound 68, 7-Methoxy-8-(1-methyl-1,2,3,6-tetrahydro-pyridin-4-yl)-1-thiophen-3-yl-1,4-dihydro-chromeno[4,3-c]pyrazole-3-carboxylic acid tert-butyl-methyl-amide] and COc1cc2c(cc1-c1c[nH]nc1C)-c1c(c(C(=O)N(C)C(C)(C)C)nn1-c1ccsc1)CO2 [Compound 71, 7-Methoxy-8-(3-methyl-1H-pyrazol-4-yl)-1-thiophen-3-yl-1,4-dihydro-chromeno[4,3-c]pyrazole-3-carboxylic acid tert-butyl-methyl-amide] cannot be ordered by EC50: < 100 nM for the first, < 100 nM for the second.

COc1cc2c(cc1-c1cncnc1)-c1c(c(C(=O)N(C)C(C)(C)C)nn1-c1ccsc1)CO2 [Compound 70, 7-Methoxy-8-pyrimidin-5-yl-1-thiophen-3-yl-1,4-dihydro-chromeno[4,3-c]pyrazole-3-carboxylic acid tert-butyl-methyl-amide] and COc1cc2c(cc1-c1cnoc1)-c1c(c(C(=O)N(C)C(C)(C)C)nn1-c1ccsc1)CO2 [Compound 72, 8-Isoxazol-4-yl-7-methoxy-1-thiophen-3-yl-1,4-dihydro-chromeno[4,3-c]pyrazole-3-carboxylic acid tert-butyl-methyl-amide] cannot be ordered by EC50: < 100 nM for the first, < 100 nM for the second.
